Earlier results as cited in patent US20060024344A1 (priority 2004, published 2006).
Entries after “also recorded” stand apart in the source; their conditions may differ.

Key:
Conditions in all cases: in vivo
[1] = tested on: human tongue
[2] = tested on: human skin
[3] = tested on: rainbow trout, blugill and channel catfish
[4] = tested on: captive lemon sharks
[5] = tested on: sharks
[6] = tested on: fish in schoold
[7] = tested on: sharks; remark: listed apart in the source
[8] = tested on: sharks; remark: listed apart in the source

Molecule: COc1cc(CNC(=O)CCCC/C=C/C(C)C)ccc1O [capsaicin, 8-methyl-n-vanillyl-6-nonenamide]
- concentration at which detected in humans [1]: 0.1 µg/mL
- concentration provoking a sensation of perceptible warmth on tongue [1]: 1 µg/mL
- concentration provoking a sensation of persistent burning on tongue [1]: 10 µg/mL
- skin reaction (flare, irritation) [2]: no flare and irritation
- skin temperature below which burning pain and hyperaesthesia cease completely [2]: below 28 deg C.
- concentration producing perceptible warmth at subcutaneous and intramuscular level ([2]; sc): 10 µg/mL
- concentration producing persistent burning at subcutaneous and intramuscular level ([2]; sc): 100 µg/mL

Molecule: O=C(OC[C@H]1O[C@@H](OC(=O)c2cc(O)c(O)c(OC(=O)c3cc(O)c(O)c(O)c3)c2)[C@H](OC(=O)c2cc(O)c(O)c(OC(=O)c3cc(O)c(O)c(O)c3)c2)[C@@H](OC(=O)c2cc(O)c(O)c(OC(=O)c3cc(O)c(O)c(O)c3)c2)[C@@H]1OC(=O)c1cc(O)c(O)c(OC(=O)c2cc(O)c(O)c(O)c2)c1)c1cc(O)c(O)c(OC(=O)c2cc(O)c(O)c(O)c2)c1 [tannic acid]
- toxicity for fishes compared with zebra mussel [3]: substantially greater

Molecule: CCCCCCCCCCCCOS(=O)(=O)[O-].[Na+] [sodium dodecyl sulfate]
- shark repellent effect [4]: strongly repelled sharks
- efficiency to repel sharks [5]: revealed efficiency to repel sharks

Molecule: magnesium dodecyl sulfate
- efficiency to repel sharks [5]: revealed efficiency to repel sharks

Molecule: N#CSCCCCC(Cl)(Cl)Cl [thiocyanic acid 5,5,5-trichloro amyl ester]
- observed effect on fish [6]: flaccid paralysis; also recorded: respiratory impairment

Molecule: O=S([O-])O.[Na+] [sodium bisulfite]
- observed effect on fish [6]: respiratory impairment

Molecule: CCCCCCCCCCOS(=O)(=O)[O-].[Na+] [sodium decyl sulfate]
- efficiency to repel sharks [5]: revealed efficiency to repel sharks

Molecule: Oc1ccccc1 [phenol]
- observed effect on fish [6]: strongly stimulated the entire body

Molecule: C=CCN=C=S [allyl isothiocyanate]
- observed effect on fish [6]: strongly stimulated the entire body

Molecule: CC(=O)OC[C@H](C)CCC[C@@H](C)[C@H]1CCC2C3C(C[C@H](O)[C@@]21C)[C@@]1(C)CC[C@@H](O)C[C@H]1C[C@H]3O[C@@H]1O[C@H](CO)[C@H](O)[C@H](O)[C@H]1O (stereo partly drawn) [mosesin-4]
- shark repellent activity [7]: shows shark repellent activity

Molecule: O=C(CCl)c1ccccc1 [phenacyl chloride]
- observed effect on fish [6]: seriously irritated the eyes and impaired vision

Molecule: CCS [ethyl mercaptan]
- observed effect on fish [6]: induced tetanic paralysis

Molecule: copper acetate
- effectivity as a shark deterrent [8]: reduced effectivity as a deterrent

Molecule: CCCCCCCCOS(=O)(=O)[O-].[Na+] [sodium octyl sulfate]
- efficiency to repel sharks [5]: revealed efficiency to repel sharks

Molecule: CCCCCCCCCCCCCCOS(=O)(=O)[O-].[Na+] [sodium tetradecyl sulfate]
- efficiency to repel sharks [5]: revealed efficiency to repel sharks

Molecule: COc1ccc(O)c(C(C)(C)C)c1 [butylated hydroxyanisole]
- toxicity for fishes compared with zebra mussel [3]: substantially greater

Molecule: O=C(CBr)c1ccccc1 [phenacyl bromide]
- observed effect on fish [6]: seriously irritated the eyes and impaired vision

Molecule: CC1(C)[C@@H]2CC[C@@]1(C)[C@H](OC(=O)CSC#N)C2 [isobornyl thiocyanoacetate]
- observed effect on fish [6]: induced tetanic paralysis

Molecule: sodium dodecyl ether sulfate
- efficiency to repel sharks [5]: revealed efficiency to repel sharks

Molecule: CCCCCCCCCCCCCCCCCCOS(=O)(=O)[O-].[Na+] [sodium octadecyl sulfate]
- efficiency to repel sharks [5]: revealed efficiency to repel sharks
